Assay results taken from article PMC10449633 (Nature Chemical Biology, 2023).
Where two headings read alike, the source gives them in different places. Numbered stars: 1 amine (or outer) side, 2 acyl side, 3 side chain; on linkers, the order of the positions; unused ones are H or OH. Square brackets hold non-standard residues; d marks the D form. Peptide text beside a SMILES is read from it. ξ: configuration not given here. X1 = CN(C(Cc1cn(Cc2ccc(Br)cc2)c2ccccc12)C(=O)[*:2])[*:1]; ξAla(CF3) = NC(CC(F)(F)F)C(=O)O; X2 = N#CCCC(O[*:1])C(=O)[*:2]; NMeL = CN[CH](CC(C)C)C(=O)O; NMeA = CN[CH](C)C(=O)O

What was measured:
[1] = target: T1, Sec61 (Homo sapiens, UniProt P61619); test: signal peptide-GLuc (SP-GLuc) reporter panel, 89 constructs; assay type: cell-based; conditions: read-out: log10(IC50 8445) (converted)
T1 construct: endogenous in cells
Text: The heat map depicts IC50 values calculated from each SP-GLuc dose–response curve. d, Arthritis was induced in BALB/c mice with antibodies specific for type II collagen (mAb) on day 0 and endotoxin on day 3. On day 4, when the disease was present in all animals, mice were randomized and treated for 2 weeks with thrice weekly (QODx3) or weekly (QW) intravenous administration of vehicle or KZR-8445 or intraperitoneal administration of dexamethasone. Clinical scores (0–4 per paw; n = 10 per group) and body weights were followed until day 14. Data are presented as mean values ± s.d. mAb, monoclonal antibody. Source data
To investigate the effects of KZR-8445 on secretory and membrane protein biogenesis and to establish Sec61α as the relevant target, we quantified the secretion of a doxycycline-inducible Gaussia luciferase (GLuc) reporter fused to the C-terminus of two full-length pro-inflammatory cytokines, interleukin-2 (IL-2) (which contains a cleavable signal peptide) and tumor necrosis factor-alpha (TNFα) (which contains an N-terminal transmembrane anchor). […] KZR-8445 is structurally related to CT8, which discriminates among Sec61 clients based largely on their N-terminal signal peptide. […] We also directly compared KZR-8445 to mycolactone A/B, a structurally distinct and relatively client-nonselective Sec61 inhibitor[8],[25], for their ability to discriminate between vascular cell adhesion molecule (VCAM) and preprolactin (pPL) signal peptides.
Target sequence in this assay (P61619 whole entry): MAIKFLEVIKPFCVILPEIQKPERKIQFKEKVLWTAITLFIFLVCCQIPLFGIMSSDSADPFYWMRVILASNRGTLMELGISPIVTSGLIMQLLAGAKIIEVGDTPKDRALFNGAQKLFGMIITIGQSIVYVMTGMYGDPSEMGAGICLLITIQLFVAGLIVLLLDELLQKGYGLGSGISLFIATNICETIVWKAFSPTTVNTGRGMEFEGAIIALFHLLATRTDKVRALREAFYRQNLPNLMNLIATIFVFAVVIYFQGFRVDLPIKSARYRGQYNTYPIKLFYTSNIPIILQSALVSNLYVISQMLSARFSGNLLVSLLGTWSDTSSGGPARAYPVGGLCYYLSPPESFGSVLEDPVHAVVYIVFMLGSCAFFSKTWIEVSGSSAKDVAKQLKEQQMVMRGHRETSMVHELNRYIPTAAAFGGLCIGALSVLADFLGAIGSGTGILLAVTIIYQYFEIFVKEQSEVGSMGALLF
Target sequence in this assay (P60059 whole entry, further chain): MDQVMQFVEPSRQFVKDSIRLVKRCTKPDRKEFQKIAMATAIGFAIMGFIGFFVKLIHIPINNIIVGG
Target sequence in this assay (P60468 whole entry, further chain): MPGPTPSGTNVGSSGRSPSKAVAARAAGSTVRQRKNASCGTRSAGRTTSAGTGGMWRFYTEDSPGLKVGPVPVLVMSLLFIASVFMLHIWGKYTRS

[2] = target: T1, Sec61; test: cell-based; assay type: cell-based; conditions: for remaining activity at 0.000660151 µM: Drug nM (log10) 0.660151; for remaining activity at 0.00050805 µM: Drug nM (log10) -0.29409
Target sequence in this assay (P61619 whole entry): as the sequence (P61619 whole entry) above
Target sequence in this assay (P60059 whole entry, further chain): as the sequence (P60059 whole entry, further chain) above
Target sequence in this assay (P60468 whole entry, further chain): as the sequence (P60468 whole entry, further chain) above

[3] = target: T1, Sec61; test: cell-based; conditions: 24 h, range in brackets
Target sequence in this assay (P60059 whole entry): as the sequence (P60059 whole entry, further chain) above
Target sequence in this assay (P61619 whole entry): as the sequence (P61619 whole entry) above
Target sequence in this assay (P60468 whole entry, further chain): as the sequence (P60468 whole entry, further chain) above

[4] = system: SARS-CoV-2; conditions: Vero cells
[5] = HEK-293T, 24 h, VCAM signal peptide, read-out: secreted luciferase activity (% of no-drug control)
[6] = HEK-293T, 24 h, pPL signal peptide, read-out: secreted luciferase activity (% of no-drug control)

For `CC(C)CC1NC(=O)C(Cc2cn(Cc3ccc(Br)cc3)c3ccccc23)N(C)C(=O)C(CC(F)(F)F)NC(=O)C(CC(C)C)N(C)C(=O)C(CC(F)(F)F)NC(=O)C(CCC#N)OC(=O)C(C)N(C)C1=O` (stereo not shown) [KZR-8445] (cyclo([X1]L[NMeA][X2][ξAla(CF3)][NMeL][ξAla(CF3)]); configuration not given here), which IC50 ([1]; IL15RA SP-GLuc) is on record?
Its IC50 is 294 nM.

And the IC50 ([1]; IL15 SP-GLuc)?
The IC50 was 116 nM.

What about the IC50 ([1]; IL17A SP-GLuc) of the same compound?
The IC50 was 318 nM.

What about the IC50 ([1]; IL17F SP-GLuc) of the same compound?
Its IC50 is 228 nM.

And the IC50 ([1]; IL17RA SP-GLuc)?
Its IC50 is 408 nM.

And the IC50 ([1]; IL23A SP-GLuc)?
Its IC50 is 425 nM.

And the IC50 ([1]; IL23R SP-GLuc)?
The IC50 was 366 nM.

And the IC50 ([1]; ITGA3 SP-GLuc)?
Its IC50 is 18300 nM.

What about the IC50 ([1]; ITGB1 SP-GLuc) of the same compound?
The IC50 was > 25000 nM.

What about the IC50 ([1]; ITGB3 SP-GLuc) of the same compound?
The IC50 was 106 nM.

What about the IC50 ([1]; ITGB5 SP-GLuc) of the same compound?
The IC50 was 89.1 nM.

What about the IC50 ([1]; ITGB7 SP-GLuc) of the same compound?
The IC50 was 228 nM.

And the IC50 ([1]; JTB SP-GLuc)?
Its IC50 is 25.5 nM.

And the IC50 ([1]; KRTDAP SP-GLuc)?
Its IC50 is 570 nM.

What about the IC50 ([1]; LCN6 SP-GLuc) of the same compound?
The IC50 was 101 nM.

What about the IC50 ([1]; LDLR SP-GLuc) of the same compound?
The IC50 was 800 nM.

And the IC50 ([1]; LILRB2 SP-GLuc)?
The IC50 was 1730 nM.

And the IC50 ([1]; LRP8 SP-GLuc)?
Its IC50 is 681 nM.

What about the IC50 ([1]; LRRC32 SP-GLuc) of the same compound?
Its IC50 is > 25000 nM.

And the IC50 ([1]; MASP2 SP-GLuc)?
The IC50 was 127 nM.

What about the IC50 ([1]; METTL7a SP-GLuc) of the same compound?
The IC50 was 6900 nM.

What about the IC50 ([1]; NGF SP-GLuc) of the same compound?
The IC50 was 347 nM.

What about the IC50 ([1]; P3H1 SP-GLuc) of the same compound?
Its IC50 is 72.7 nM.

And the IC50 ([1]; PCDHA4 SP-GLuc)?
Its IC50 is 489 nM.

What about the IC50 ([1]; PCSK9 SP-GLuc) of the same compound?
Its IC50 is 1280 nM.

And the IC50 ([1]; PDCD1 SP-GLuc)?
The IC50 was 37 nM.

And the IC50 ([1]; PRKCSH SP-GLuc)?
Its IC50 is 186 nM.

What about the IC50 ([1]; PSG8 SP-GLuc) of the same compound?
Its IC50 is 292 nM.

What about the IC50 ([1]; SIRPA SP-GLuc) of the same compound?
The IC50 was 2030 nM.

What about the IC50 ([1]; SSR2 SP-GLuc) of the same compound?
Its IC50 is 137 nM.

What about the IC50 ([1]; STAB1 SP-GLuc) of the same compound?
Its IC50 is 670 nM.

And the IC50 ([1]; SUCO SP-GLuc)?
Its IC50 is 1450 nM.

And the IC50 ([1]; TGFB1 SP-GLuc)?
The IC50 was 2210 nM.

And the IC50 ([1]; TGFB2 SP-GLuc)?
The IC50 was 187 nM.

What about the IC50 ([1]; TGFB3 SP-GLuc) of the same compound?
The IC50 was > 25000 nM.

And the IC50 ([1]; TGFBR1 SP-GLuc)?
The IC50 was 134 nM.

What about the IC50 ([1]; TIGIT SP-GLuc) of the same compound?
The IC50 was 590 nM.

What about the IC50 ([1]; TMED10 SP-GLuc) of the same compound?
The IC50 was 462 nM.

And the IC50 ([1]; UCN SP-GLuc)?
The IC50 was 5900 nM.

What about the “potency against VCAM-GLuc relative to pPL-GLuc” value ([2]; HEK293T, 24 h) of the same compound?
The value was 20 fold.

And the remaining activity at 0.000660151 µM [2, 5]?
The remaining activity at 0.000660151 µM was 84%.

What about the remaining activity at 0.00050805 µM [2, 5] of the same compound?
Its remaining activity at 0.00050805 µM is 92.6%.

And the remaining activity at 0.000660151 µM [2, 6]?
The remaining activity at 0.000660151 µM was 93.6%.

What about the remaining activity at 0.004 µM ([2]; HEK-293T, 24 h, pPL signal peptide, Drug nM (log10) 4, read-out: secreted luciferase activity (% of no-drug control)) of the same compound?
Its remaining activity at 0.004 µM is 14%.

And the remaining activity at 0.00050805 µM [2, 6]?
Its remaining activity at 0.00050805 µM is 97.9%.

What about the IC50 ([2]; read-out: IC50, prolactin signal peptide in SP-GLuc secretion assay) of the same compound?
Its IC50 is ~1000 nM.

And the IC50 ([3]; HER3 signal peptide-GLuc, read-out: IC50 (nM) HER3)?
Its IC50 is 72 nM.

And the IC50 ([3]; PD1 signal peptide-GLuc, read-out: IC50 (nM) PD1)?
Its IC50 is 32 nM.

And the IC50 ([3]; full-length IL-2-GLuc, read-out: IC50 (nM) IL-2)?
Its IC50 is 84 nM.

What about the IC50 ([3]; full-length TNFα-GLuc, read-out: IC50 (nM) TNFα) of the same compound?
Its IC50 is 40 nM.

And the IC50 ([3]; prolactin signal peptide-GLuc, read-out: IC50 (nM) Prolactin)?
Its IC50 is 1070 nM.

And the virus-induced cytotoxicity [4]?
Its virus-induced cytotoxicity is “blocked”.
